According to patent publication US20130053381A1, “2,4-DIOXO-1,4-DIHYDRO-2H-QUINAZOLIN-3-YL-SULFONAMIDE DERIVATIVES” (NOVARTIS AG, priority 2010, published 2013):
Read-outs that look alike come from different tables or passages of the source.

What was measured:
AMPA receptor = assay: [3H]CNQX binding test (AMPA-receptor binding); parameters: species or system rat
Protocol: CNQX binding test (Honore et al. Biochem. Pharmacol. 1989, 38: 3207-3212). This test is performed as follows.
Brain membranes: The animals are sacrificed, the brain removed and homogenized in 10 volumes of ice-cold 10% sucrose with a glass/Teflon homogenizer at positions 5 for 30 sec. The membranes are centrifuged at 1000×g for 10 min, and the supernatant centrifuged at 20,000×g for 15 min. The resulting pellet is resuspended in 10 volumes of cold water with a tissue homogenizer (Brinkman Polytron) at position 5 for 15 sec and the suspension centrifuged at 8000×g for 10 min. The supernatant including the buffy layer is centrifuged at 40,000×g for 20 min, the pellet resuspended in 5 volumes of water and the suspension frozen (20-30 min in dry ice/MeOH) and thawed (water-bath at 37° C.) twice. The suspension is centrifuged at 40,000×g for 20 min, the pellet resuspended in 50 mM HEPES/KOH, pH 7.5, and centrifuged at 40,000×g for 10 min. The final pellet is resuspended with a glass/Teflon homogenizer in 5 volumes of HEPES/KOH buffer; 2 mL aliquots are frozen and stored in liquid nitrogen.
Pretreatment of membranes: Membranes are thawed at 35° C. and once washed with 50 mM HEPES/KOH by centrifugation at 39,000×g for 10 min. The final pellet is resuspended with a glass/Teflon homogenizer in the same buffer.
Radioligand binding assay: It is performed using 96-well microtiterplates in a volume of 0.3 mL of 50 mM HEPES/KOH, pH 7.2, 100 μg membrane protein, 5 nM [^3H]-CNQX (NEN) and the compound to be tested. Incubation is performed at 4° C. for 40 min and the reaction is terminated by centrifugation (Sigma 4K10) at 3700×g for 30 min. The pellet is washed once with cold buffer and then dissolved in 0.02 mL of the tissue solubilizer Soluene for 20 min. Two hundred μL of the scintillation fluid Microscint 20 (Packard) are added and the radioactivity is counted in a Packard Topcount scintillation counter at an efficiency of 40-45%. Nonspecific binding is defined by 10 μM CNQX. Assays are performed in triplicate.

OF1 mice = assay: Maximal electroshock test (MES Test); assay type: in vivo; conditions: for responders at 50 mg/kg: p.o.
Method in brief: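 Compound given p.o. (typically 50 mg/kg) 1 h before tonic-clonic convulsions were induced via temporal electrodes (50 Hz, 18 mA, 0.2 s); seizure lasting 3 s or less counted as protection. Read-out is percent protected of five mice per condition; ED50 calculated, blood exposure sampled after shock.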

[1] = Table 2 parent compounds, rat, read-out: [3H]CNQX IC50 AMPA receptor binding, rat
[2] = Mus musculus, po, pre-treatment time −1 h, read-out: %-Protection
[3] = Table 1A parent compounds, AMPA-receptor binding as described for Table 2, read-out: IC50

Row | Compound | IC50 (AMPA receptor; [1]) [nM] | responders at 50 mg/kg (OF1 mice; [2]) [%] | IC50 (AMPA receptor; [3]) [nM] | also measured
1 | CCC(OC)c1cc2c(=O)n(NS(C)(=O)=O)c(=O)[nH]c2cc1C(F)(F)F (stereo not drawn) [Example 11.0, N-[2,4-Dioxo-6-(1-methoxy-propyl)-7-trifluoromethyl-1,4-dihydro-2H-quinazolin-3-yl]-methanesulfonamide] | 317 | 100 | – | –
2 | CC(C)n1nccc1-c1cc2c(=O)n(NS(C)(=O)=O)c(=O)[nH]c2cc1C(F)F [Example 6.0, N-[7-difluoromethyl-6-(2-isopropyl-2H-pyrazol-3-yl)-2,4-dioxo-1,4-dihydro-2H-quinazolin-3-yl]-methanesulfonamide] | 110 | 80 | – | responders at 25 mg/kg (OF1 mice; Mus musculus, po, Dose: 25 mg/kg, p.o. (footnote b), pre-treatment time −1 h, read-out: %-Protection): 20%
3 | CC(C)n1nccc1-c1cc2c(=O)n(NS(C)(=O)=O)c(=O)[nH]c2cc1C(F)(F)F [Example 5.0, N-[6-(2-isopropyl-2H-pyrazol-3-yl)-2,4-dioxo-7-trifluoromethyl-1,4-dihydro-2H-quinazolin-3-yl]-methanesulfonamide] | 87 | 80 | – | –
4 | CCC(O)c1cc2c(=O)n(NS(C)(=O)=O)c(=O)[nH]c2cc1C(F)(F)F (stereo not drawn) [Example 12.0, N-[6-(1-hydroxy-propyl)-2,4-dioxo-7-trifluoromethyl-1,4-dihydro-2H-quinazolin-3-yl]-methanesulfonamide] | 162 | 40 | – | –
5 | CCc1cc2[nH]c(=O)n(NS(C)(=O)=O)c(=O)c2cc1-c1ccnn1CC [Example 13.0, N-[7-ethyl-6-(2-ethyl-2H-pyrazol-3-yl)-2,4-dioxo-1,4-dihydro-2H-quinazolin-3-yl]-methanesulfonamide] | 341 | 60 | – | –
6 | CS(=O)(=O)Nn1c(=O)[nH]c2cc(C(F)(F)F)c([C@H]3CCCO3)cc2c1=O [Example 10.0, N—((R)-2,4-dioxo-6-tetrahydro-furan-2-yl-7-trifluoromethyl-1,4-dihydro-2H-quinazolin-3-yl)-methanesulfonamide] | 159 | 100 | – | responders at 50 mg/kg (OF1 mice; Mus musculus, po, pre-treatment time −0.5 h (footnote d), read-out: %-Protection): 0%
7 | CS(=O)(=O)Nn1c(=O)[nH]c2cc(C(F)(F)F)c(-n3cccc3)cc2c1=O [Example 8.0, N-(2,4-dioxo-6-pyrrol-1-yl-7-trifluoromethyl-1,4-dihydro-2H-quinazolin-3-yl)-methanesulfonamide] | 162 | 40 | – | –
8 | CS(=O)(=O)Nn1c(=O)[nH]c2cc(C(F)(F)F)c(-n3cnnc3)cc2c1=O [Example 9.0, N-(2,4-dioxo-6-[1,2,4]triazol-4-yl-7-trifluoromethyl-1,4-dihydro-2H-quinazolin-3-yl)-methanesulfonamide] | 46 | – | – | responders at 50 mg/kg (OF1 mice; Mus musculus, po, pre-treatment time −2 h (footnote a), read-out: %-Protection): 20%
9 | Cn1nccc1-c1cc2c(=O)n(NS(C)(=O)=O)c(=O)[nH]c2cc1C(F)(F)F [Example 1.0, N-[6-(2-methyl-2H-pyrazol-3-yl)-2,4-dioxo-7-trifluoromethyl-1,4-dihydro-2H-quinazolin-3-yl]-methanesulfonamide] | 208 | 20 | – | –
10 | CCOC(C)c1cc2c(=O)n(NS(C)(=O)=O)c(=O)[nH]c2cc1C(F)F (stereo not drawn) [Example 21.0] | – | – | 900 | –
11 | CC(C)n1nccc1-c1cc2c(=O)n(NS(C)(=O)=O)c(=O)[nH]c2cc1C(F)F [Example 35.0] | – | – | 110 | –
12 | CC(F)c1cc2[nH]c(=O)n(NS(C)(=O)=O)c(=O)c2cc1-c1ccnn1C (stereo not drawn) [Example 43.0] | – | – | 700 | –
13 | CC(C)c1cc2[nH]c(=O)n(NS(C)(=O)=O)c(=O)c2cc1C1CCOC1 (stereo not drawn) [Example 44.0] | – | – | 2200 | –
14 | CC(C)c1cc2[nH]c(=O)n(NS(C)(=O)=O)c(=O)c2cc1-c1ccnn1C [Example 3.0, N-[7-isopropyl-6-(2-methyl-2H-pyrazol-3-yl)-2,4-dioxo-1,4-dihydro-2H-quinazolin-3-yl]-methanesulfonamide] | 189 | – | – | responders at 15 mg/kg (OF1 mice; Mus musculus, po, Dose: 15 mg/kg, p.o. (footnote c), pre-treatment time −1 h, read-out: %-Protection): 100%; responders at 50 mg/kg (OF1 mice; Mus musculus, po, Table 5, pre-treatment time −0.25 h, read-out: %-Protection): 0%; responders at 50 mg/kg (OF1 mice; Mus musculus, po, Table 5, pre-treatment time −0.5 h, read-out: %-Protection): 100%; responders at 50 mg/kg (OF1 mice; Mus musculus, po, Table 5, pre-treatment time −1 h, read-out: %-Protection): 100%
15 | CS(=O)(=O)Nn1c(=O)[nH]c2cc(C(F)(F)F)c(-n3ccnc3)cc2c1=O [Example 4.0, N-(6-imidazol-1-yl-2,4-dioxo-7-trifluoromethyl-1,4-dihydro-2H-quinazolin-3-yl)-methanesulfonamide] | 42 | 0 | – | ED50 (OF1 mice; Mus musculus, ip, pre-treatment time −0.25 h (footnote g)): 10.7 mg/kg; %-seizure protection (OF1 mice; single 50 mg/kg p.o. dose, 30 min after treatment, MES Test): 0%
16 | CC(C)c1cc2[nH]c(=O)n(NS(C)(=O)=O)c(=O)c2cc1-c1ccnn1[C@@H]1CCOC1 [Example 45.0] | – | – | 560 | –
17 | CC(OC1CCCC1)c1cc2c(=O)n(NS(C)(=O)=O)c(=O)[nH]c2cc1C(F)(F)F (stereo not drawn) [Example 25.0] | – | – | 540 | –
18 | COC(c1cc2c(=O)n(NS(C)(=O)=O)c(=O)[nH]c2cc1C(F)(F)F)C(C)C (stereo not drawn) [Example 28.0] | – | – | 1040 | –
19 | COC(C)c1cc2c(=O)n(NS(C)(=O)=O)c(=O)[nH]c2cc1C(F)(F)F (stereo not drawn) [Example 16.0] | – | – | 390 | –
20 | COCCn1nccc1-c1cc2c(=O)n(NS(C)(=O)=O)c(=O)[nH]c2cc1C(C)C [Example 36.0] | – | – | 320 | –
21 | CC(C)c1cc2[nH]c(=O)n(NS(C)(=O)=O)c(=O)c2cc1-c1ccnn1C(C)C [Example 37.0] | – | – | 430 | –
22 | CC(C)n1nccc1-c1cc2c(=O)n(NS(C)(=O)=O)c(=O)[nH]c2cc1C(C)(F)F [Example 40.0] | – | – | 210 | –
23 | Cn1nccc1-c1cc2c(=O)n(NS(C)(=O)=O)c(=O)[nH]c2cc1C(C)(F)F [Example 41.0] | – | – | 580 | –
24 | CCC(OC(C)C)c1cc2c(=O)n(NS(C)(=O)=O)c(=O)[nH]c2cc1C(F)(F)F (stereo not drawn) [Example 20.0] | – | – | 380 | –
25 | CCc1cc2[nH]c(=O)n(NS(C)(=O)=O)c(=O)c2cc1-c1ccnn1C [Example 2.0, N-[7-ethyl-6-(2-methyl-2H-pyrazol-3-yl)-2,4-dioxo-1,4-dihydro-2H-quinazolin-3-yl]-methanesulfonamide] | 257 | 80 | – | –
26 | C[C@@H]1COC[C@@H]1c1cc2c(=O)n(NS(C)(=O)=O)c(=O)[nH]c2cc1C(F)(F)F [Example 48.0] | – | – | 520 | –
27 | COCCn1nccc1-c1cc2c(=O)n(NS(C)(=O)=O)c(=O)[nH]c2cc1C(F)(F)F [Example 32.0] | – | – | 310 | –
28 | CCCCOC(C)c1cc2c(=O)n(NS(C)(=O)=O)c(=O)[nH]c2cc1C(F)(F)F (stereo not drawn) [Example 23.0] | – | – | 760 | –
29 | CS(=O)(=O)Nn1c(=O)[nH]c2cc(C(F)(F)F)c(C3CCOC3)cc2c1=O (stereo not drawn) [Example 30.0] | – | – | 220 | –
